In US7618983B2, “Bicyclic triazole α4 integrin inhibitors” (Janssen Pharmaceutica, N.V., priority 2004, dated 2009):

Experiments:
human α4β7 integrin = target: T1, human α4β7 integrin (Homo sapiens, UniProt P13612+P26010); experiment: α4β7-K562 Cell Adhesion Assay (α4β7 Mediated Adhesion/MAdCAM-1); format: cell-based; conditions: K562 cells expressing human α4β7 adhering to FLAG-hMAdCAM-1, 1 mM Mn2+; read-out: α4β7, Madcam IC50
T1 construct: expressed in transfected cells; host or cells: K562 cells, stably transfected
T1 sequence (P13612 34-1032): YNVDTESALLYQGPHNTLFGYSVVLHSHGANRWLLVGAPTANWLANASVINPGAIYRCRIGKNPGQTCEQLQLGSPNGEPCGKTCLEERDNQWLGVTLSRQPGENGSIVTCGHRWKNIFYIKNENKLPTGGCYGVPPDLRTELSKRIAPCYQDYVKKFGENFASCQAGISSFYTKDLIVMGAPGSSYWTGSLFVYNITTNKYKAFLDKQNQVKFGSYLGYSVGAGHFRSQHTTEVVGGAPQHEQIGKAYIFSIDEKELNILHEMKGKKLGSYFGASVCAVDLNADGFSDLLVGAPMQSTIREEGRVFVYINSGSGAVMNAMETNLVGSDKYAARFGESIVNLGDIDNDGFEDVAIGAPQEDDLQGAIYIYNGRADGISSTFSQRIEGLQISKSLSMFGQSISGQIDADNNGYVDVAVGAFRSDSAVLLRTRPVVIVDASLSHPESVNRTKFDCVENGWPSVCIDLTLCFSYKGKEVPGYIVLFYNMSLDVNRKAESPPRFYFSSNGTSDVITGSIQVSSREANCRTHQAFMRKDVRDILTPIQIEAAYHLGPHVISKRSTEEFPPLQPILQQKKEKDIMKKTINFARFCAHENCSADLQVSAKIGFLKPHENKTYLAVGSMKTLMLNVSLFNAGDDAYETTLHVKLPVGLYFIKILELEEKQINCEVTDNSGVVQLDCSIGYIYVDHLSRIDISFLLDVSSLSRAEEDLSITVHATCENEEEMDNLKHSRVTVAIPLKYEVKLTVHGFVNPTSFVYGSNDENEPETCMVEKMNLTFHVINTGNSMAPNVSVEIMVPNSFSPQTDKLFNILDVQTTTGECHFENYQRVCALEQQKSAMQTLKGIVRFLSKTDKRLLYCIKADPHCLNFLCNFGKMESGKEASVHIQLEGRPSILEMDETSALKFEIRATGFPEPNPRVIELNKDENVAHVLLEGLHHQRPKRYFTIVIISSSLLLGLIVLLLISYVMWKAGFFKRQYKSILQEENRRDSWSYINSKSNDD
T1 sequence (P26010 20-798): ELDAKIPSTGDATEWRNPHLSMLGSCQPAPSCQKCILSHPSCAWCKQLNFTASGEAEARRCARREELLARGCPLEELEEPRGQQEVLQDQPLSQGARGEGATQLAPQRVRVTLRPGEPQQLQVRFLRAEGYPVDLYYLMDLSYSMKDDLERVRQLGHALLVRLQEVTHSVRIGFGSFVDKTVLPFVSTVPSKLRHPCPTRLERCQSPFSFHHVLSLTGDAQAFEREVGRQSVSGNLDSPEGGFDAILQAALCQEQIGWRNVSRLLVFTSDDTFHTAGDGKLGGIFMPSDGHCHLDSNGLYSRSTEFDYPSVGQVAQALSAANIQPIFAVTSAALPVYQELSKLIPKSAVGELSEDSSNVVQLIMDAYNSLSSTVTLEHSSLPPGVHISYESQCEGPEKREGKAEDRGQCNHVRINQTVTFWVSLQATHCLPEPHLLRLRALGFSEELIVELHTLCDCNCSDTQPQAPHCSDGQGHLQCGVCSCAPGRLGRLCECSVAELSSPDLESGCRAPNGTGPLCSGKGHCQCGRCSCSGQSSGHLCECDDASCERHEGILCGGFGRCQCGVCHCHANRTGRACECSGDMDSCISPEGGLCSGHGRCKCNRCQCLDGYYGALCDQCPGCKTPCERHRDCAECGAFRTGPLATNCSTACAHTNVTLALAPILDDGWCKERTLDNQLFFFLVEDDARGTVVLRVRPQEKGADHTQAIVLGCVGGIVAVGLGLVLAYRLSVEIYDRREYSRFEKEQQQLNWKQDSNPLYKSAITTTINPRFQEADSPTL
Procedure: α4β7-K562 Cell Adhesion Assay (α4β7 Mediated Adhesion/MAdCAM-1)
M2 anti-FLAG antibody coated 96-well plates (Sigma) were coated for 1 hour at 4° C. with 2-8 μl/well recombinant FLAG-hMAdCAM-1 contained in 100 μL of Dulbecco's PBS, pH 7.4, with 1% BSA and 1 mM Mn^2+ (PBS-BSA-Mn). Plates were washed once with PBS-BSA-Mn. Buffer was removed and compounds to be tested (50 μL) were added at 2 times concentration. Stably transfected K562 cells expressing human α4β7 integrin, (50 μL at 2×10^6/mL) that had been labeled with 100 μg/mL carboxymethyl fluorescein diacetate succinimidyl ester (CFDA-SE; Molecular Probes) for 15 min at 37° C. were added to each well and allowed to adhere for 1 h at room temperature. Plates were washed 4 times in PBS-BSA-Mn and then cells were lysed for 2 minutes by addition of 100 μL of PBS without Ca, Mg supplemented with 0.1 M NaOH. The plate was read on a 96-well fluorescent plate reader at 485 nm excitation and 530 nm emission.

α4β1 = α4β1 (Homo sapiens, UniProt P05556+P13612); experiment: Ramos Cell Adhesion Assay (α4β1 Mediated Adhesion/VCAM-1); format: cell-based; design: Ramos Cell Adhesion Assay (α4β1 Mediated Adhesion/VCAM-1); endogenous in cells; host or cells: Ramos cells; conditions: Ramos cells adhering to recombinant hVCAM-1; read-out: α4β1 IC50
Chain of α4β1 (P05556 21-798, one chain of several): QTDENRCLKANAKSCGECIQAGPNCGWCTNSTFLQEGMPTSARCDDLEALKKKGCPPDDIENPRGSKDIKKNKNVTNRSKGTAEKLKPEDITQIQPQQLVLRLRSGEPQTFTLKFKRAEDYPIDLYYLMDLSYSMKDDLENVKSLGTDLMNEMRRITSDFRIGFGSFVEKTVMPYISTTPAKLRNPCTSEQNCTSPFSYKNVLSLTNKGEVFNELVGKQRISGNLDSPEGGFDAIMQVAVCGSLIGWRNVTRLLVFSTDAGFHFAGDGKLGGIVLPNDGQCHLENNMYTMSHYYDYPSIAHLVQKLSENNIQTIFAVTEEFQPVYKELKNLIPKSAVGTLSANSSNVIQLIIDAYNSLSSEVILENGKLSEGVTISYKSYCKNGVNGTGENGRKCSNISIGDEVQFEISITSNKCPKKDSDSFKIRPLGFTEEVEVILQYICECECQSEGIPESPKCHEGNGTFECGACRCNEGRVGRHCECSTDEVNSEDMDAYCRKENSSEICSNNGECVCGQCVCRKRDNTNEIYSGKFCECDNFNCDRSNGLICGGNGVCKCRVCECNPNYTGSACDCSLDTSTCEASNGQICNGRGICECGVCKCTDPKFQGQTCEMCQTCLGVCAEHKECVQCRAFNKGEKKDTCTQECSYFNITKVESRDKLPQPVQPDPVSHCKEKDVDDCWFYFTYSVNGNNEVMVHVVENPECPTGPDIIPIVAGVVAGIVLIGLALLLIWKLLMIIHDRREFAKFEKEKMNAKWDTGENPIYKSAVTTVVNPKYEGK
Procedure: Ramos Cell Adhesion Assay (α4β1 Mediated Adhesion/VCAM-1)
Immulon 96 well plates (Dynex) were coated with 100 μL recombinant hVCAM-1 at 4.0 μg/mL in 0.05 M NaCO3 buffer pH 9.0 overnight at 4° C. (R&D Systems). Plates were washed 3 times in PBS with 1% BSA and blocked for 1 h @ room temperature in this buffer. PBS was removed and compounds to be tested (50 μL) were added at 2× concentration. Ramos cells, (50 μL at 2×10^6/mL) labeled with 5 μM Calcein AM (Molecular Probes) for 1 h at 37° C., were added to each well and allowed to adhere for 1 h at room temperature. Plates were washed 3× in PBS+1% BSA and cells were lysed for 15 minutes in 100 μL of 1 M Tris pH 8.0 with 1% SDS. The plate was read at 485 nm excitation and 530 nm emission.

Compound: O=C(Nc1ccc(C[C@H](NC(=O)[C@@H]2CCc3nnc(Cc4ccccc4)n32)C(=O)O)cc1)c1c(Cl)cccc1Cl [Cpd 4, 2-(S)-[(3-Benzyl-6,7-dihydro-5H-pyrrolo[2,1-c][1,2,4]triazole-5-(S)-carbonyl)-amino]-3-[4-(2,6-dichloro-benzoylamino)-phenyl]-propionic acid]
- IC50 (human α4β7 integrin): 0.29 µM
- IC50 (α4β1): 0.62 µM

Compound: O=C(Nc1ccc(C[C@H](NC(=O)[C@@H]2CCc3nn(Cc4ccccc4)c(=O)n32)C(=O)O)cc1)c1c(Cl)cccc1Cl [Cpd 19, 2-(S)-[(2-Benzyl-3-oxo-2,5,6,7-tetrahydro-3H-pyrrolo[2,1-c][1,2,4]triazole-5-(S)-carbonyl)-amino]-3-[4-(2,6-dichloro-benzoylamino)-phenyl]-propionic acid]
- IC50 (human α4β7 integrin): 0.2 µM
- IC50 (α4β1): > 5 µM

Compound: CCCc1nnc2n1[C@H](C(=O)N[C@@H](Cc1ccc(NC(=O)c3c(Cl)cccc3Cl)cc1)C(=O)O)CC2 [Cpd 10, 3-[4-(2,6-Dichloro-benzoylamino)-phenyl]-2-(S)-[(3-propyl-6,7-dihydro-5H-pyrrolo[2,1-c][1,2,4]triazole-5-(S)-carbonyl)-amino]-propionic acid]
- IC50 (human α4β7 integrin): 0.08 µM
- IC50 (α4β1): 1.04 µM

Compound: COc1cccc(OC)c1-c1ccc(C[C@H](NC(=O)[C@@H]2CCc3nnc(Cc4ccsc4)n32)C(=O)O)cc1 [Cpd 15, 3-(2′,6′-Dimethoxy-biphenyl-4-yl)-2-(S)-[(3-thiophen-3-ylmethyl-6,7-dihydro-5H-pyrrolo[2,1-c][1,2,4]triazole-5-(S)-carbonyl)-amino]-propionic acid]
- IC50 (human α4β7 integrin): 0.09 µM
- IC50 (α4β1): 0.71 µM

Compound: O=C(NCc1nnc2n1[C@H](C(=O)N[C@@H](Cc1ccc(NC(=O)c3c(Cl)cccc3Cl)cc1)C(=O)O)CC2)OCc1ccccc1 [Cpd 11, 2-(S)-{[3-(Benzyloxycarbonylamino-methyl)-6,7-dihydro-5H-pyrrolo[2,1-c][1,2,4]triazole-5-(S)-carbonyl]-amino}-3-[4-(2,6-dichloro-benzoylamino)-phenyl]-propionic acid]
- IC50 (human α4β7 integrin): 0.55 µM
- IC50 (α4β1): > 5 µM

Compound: COc1cnn(C)c(=O)c1-c1ccc(C[C@H](NC(=O)[C@@H]2CCc3nnc(Cc4ccccc4)n32)C(=O)O)cc1 [Cpd 17, 2-(S)-[(3-Benzyl-6,7-dihydro-5H-pyrrolo[2,1-c][1,2,4]triazole-5-(S)-carbonyl)-amino]-3-[4-(5-methoxy-2-methyl-3-oxo-2,3-dihydro-pyridazin-4-yl)-phenyl]-propionic acid]
- IC50 (human α4β7 integrin): 0.4 µM
- IC50 (α4β1): 0.64 µM

Compound: O=C(Nc1ccc(C[C@H](NC(=O)[C@@H]2CCc3nnc(Cc4ccccc4)n32)C(=O)O)cc1)c1ccc2ccccc2c1 [Cpd 6, 2-(S)-[(3-Benzyl-6,7-dihydro-5H-pyrrolo[2,1-c][1,2,4]triazole-5-(S)-carbonyl)-amino]-3-{4-[(naphthalene-2-carbonyl)-amino]-phenyl}-propionic acid]
- IC50 (human α4β7 integrin): > 5 µM
- IC50 (α4β1): > 5 µM

Compound: O=C(Nc1ccc(C[C@H](NC(=O)[C@@H]2CCc3nnc(Cc4ccccc4)n32)C(=O)O)cc1)c1c(Cl)cncc1Cl [Cpd 9, 2-(S)-[(3-Benzyl-6,7-dihydro-5H-pyrrolo[2,1-c][1,2,4]triazole-5-(S)-carbonyl)-amino]-3-{4-[(3,5-dichloro-pyridine-4-carbonyl)-amino]-phenyl}-propionic acid]
- IC50 (human α4β7 integrin): 0.02 µM
- IC50 (α4β1): 0.08 µM

Compound: NCc1nnc2n1[C@H](C(=O)N[C@@H](Cc1ccc(NC(=O)c3c(Cl)cccc3Cl)cc1)C(=O)O)CC2 [Cpd 14, 2-(S)-[(3-Aminomethyl-6,7-dihydro-5H-pyrrolo[2,1-c][1,2,4]triazole-5-(S)-carbonyl)-amino]-3-[4-(2,6-dichloro-benzoylamino)-phenyl]-propionic acid]
- IC50 (α4β1): > 5 µM

Compound: CCOc1ccc2ccccc2c1C(=O)Nc1ccc(C[C@H](NC(=O)[C@@H]2CCc3nnc(Cc4ccccc4)n32)C(=O)O)cc1 [Cpd 7, 2-(S)-[(3-Benzyl-6,7-dihydro-5H-pyrrolo[2,1-c][1,2,4]triazole-5-(S)-carbonyl)-amino]-3-{4-[(2-ethoxy-naphthalene-1-carbonyl)-amino]-phenyl}-propionic acid]
- IC50 (human α4β7 integrin): > 5 µM
- IC50 (α4β1): > 5 µM

Compound: O=C(Nc1ccc(C[C@H](NC(=O)[C@@H]2CCc3nnc(Cc4ccccc4)n32)C(=O)O)cc1)c1cccc2ccccc12 [Cpd 5, 2-(S)-[(3-Benzyl-6,7-dihydro-5H-pyrrolo[2,1-c][1,2,4]triazole-5-(S)-carbonyl)-amino]-3-{4-[(naphthalene-1-carbonyl)-amino]-phenyl}-propionic acid]
- IC50 (human α4β7 integrin): > 5 µM
- IC50 (α4β1): > 5 µM

Compound: O=C(Nc1ccc(C[C@H](NC(=O)[C@@H]2CCc3nn(Cc4ccccc4)c(=O)n32)C(=O)O)cc1)c1c(Cl)cncc1Cl [Cpd 21, 2-(S)-[(2-Benzyl-3-oxo-2,5,6,7-tetrahydro-3H -pyrrolo[2,1-c][1,2,4]triazole-5-(S)-carbonyl)-amino]-3-{4-[(3,5-dichloro-pyridine-4-carbonyl)-amino]-phenyl}-propionic acid]
- IC50 (human α4β7 integrin): 0.78 µM
- IC50 (α4β1): > 5 µM

Compound: COc1cccc(OC)c1-c1ccc(C[C@H](NC(=O)[C@@H]2CCc3nnc(Cc4ccccc4)n32)C(=O)O)cc1 [Cpd 13, 2-(S)-[(3-Benzyl-6,7-dihydro-5H-pyrrolo[2,1-c][1,2,4]triazole-5-(S)-carbonyl)-amino]-3-(2′,6′-dimethoxy-biphenyl-4-yl)-propionic acid]
- IC50 (human α4β7 integrin): 0.32 µM
- IC50 (α4β1): 1.19 µM

Compound: O=C(Nc1ccc(C[C@H](NC(=O)[C@@H]2CCc3n[nH]c(=O)n32)C(=O)O)cc1)c1c(Cl)cncc1Cl [Cpd 20, 3-{4-[(3,5-Dichloro-pyridine-4-carbonyl)-amino]-phenyl}-2-(S)-[(3-oxo-2,5,6,7-tetrahydro-3H-pyrrolo[2,1-c][1,2,4]triazole-5-(S)-carbonyl)-amino]-propionic acid]
- IC50 (human α4β7 integrin): 0.05 µM
- IC50 (α4β1): 0.45 µM
